Patent publication US9758524B2, “4-imidazopyridazin-1-yl-benzamides as Btk inhibitors” (Merck Sharp & Dohme B.V., priority 2011, dated 2017)
Where “and” joins values, the source holds several entries; their conditions need not be identical. Equal values may be shown once. Read-outs that look alike come from different tables or passages of the source.

Columns and labels:
Src enzyme = Src enzyme (Homo sapiens (Human), UniProt P12931); assay: Src enzyme activity (IMAP fluorescence polarization assay); details: read-out: EC50 Src activity values; IMAP, 60 min pre-incubation, 4 μM ATP
Chain of Src enzyme (P12931 whole entry, looked up): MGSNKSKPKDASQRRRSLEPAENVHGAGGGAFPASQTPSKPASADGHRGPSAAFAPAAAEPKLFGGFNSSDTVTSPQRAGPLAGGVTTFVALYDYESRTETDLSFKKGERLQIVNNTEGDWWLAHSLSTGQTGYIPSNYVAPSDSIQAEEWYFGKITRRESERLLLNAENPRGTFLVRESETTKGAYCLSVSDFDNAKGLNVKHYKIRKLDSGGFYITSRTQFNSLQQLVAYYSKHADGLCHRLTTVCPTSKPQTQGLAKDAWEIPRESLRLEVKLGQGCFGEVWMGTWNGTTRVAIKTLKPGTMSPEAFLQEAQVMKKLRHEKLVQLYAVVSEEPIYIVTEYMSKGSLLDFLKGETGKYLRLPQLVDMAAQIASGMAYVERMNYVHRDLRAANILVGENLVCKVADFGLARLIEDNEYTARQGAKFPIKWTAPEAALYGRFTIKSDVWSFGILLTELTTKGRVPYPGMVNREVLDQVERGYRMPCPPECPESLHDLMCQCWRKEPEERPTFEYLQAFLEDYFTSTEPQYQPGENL

Btk enzyme (His-Btk) = Btk enzyme (His-Btk) (Homo sapiens (Human), UniProt Q06187); assay: Btk enzyme activity (IMAP fluorescence polarization assay)
Chain of Btk enzyme (His-Btk) (Q06187 whole entry): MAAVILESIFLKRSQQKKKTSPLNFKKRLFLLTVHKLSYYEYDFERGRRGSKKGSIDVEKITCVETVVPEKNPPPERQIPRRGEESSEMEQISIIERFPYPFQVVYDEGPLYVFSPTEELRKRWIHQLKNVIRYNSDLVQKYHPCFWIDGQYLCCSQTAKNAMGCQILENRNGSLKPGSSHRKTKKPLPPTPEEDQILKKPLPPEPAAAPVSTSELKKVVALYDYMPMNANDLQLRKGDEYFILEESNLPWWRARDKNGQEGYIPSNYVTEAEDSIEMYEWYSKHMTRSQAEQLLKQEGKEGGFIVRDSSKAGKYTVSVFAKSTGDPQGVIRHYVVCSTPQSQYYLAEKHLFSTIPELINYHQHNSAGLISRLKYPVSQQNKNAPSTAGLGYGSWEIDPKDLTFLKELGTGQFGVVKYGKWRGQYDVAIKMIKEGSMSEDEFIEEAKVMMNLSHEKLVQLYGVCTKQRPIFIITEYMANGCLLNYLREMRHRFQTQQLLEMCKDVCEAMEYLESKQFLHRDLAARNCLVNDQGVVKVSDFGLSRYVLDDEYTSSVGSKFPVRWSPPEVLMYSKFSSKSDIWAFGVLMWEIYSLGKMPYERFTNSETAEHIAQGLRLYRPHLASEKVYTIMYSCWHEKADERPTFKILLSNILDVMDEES
Description: Inhibition of kinase activity can be measured using the Immobilized Metal Assay for Phosphochemicals (IMAP) assay. IMAP is a homogeneous fluorescence polarization (FP) assay based on affinity capture of phosphorylated peptide substrates. IMAP uses fluorescein-labeled peptide substrates that, upon phosphorylation by a protein kinase, bind to so-called IMAP nanoparticles, which are derivatized with trivalent metal complexes.
Final peptide substrate concentration in assay is 50 nM.

Lck enzyme = Lck enzyme (Homo sapiens (Human), UniProt P06239); assay: Lck enzyme activity (IMAP fluorescence polarization assay)
Chain of Lck enzyme (P06239 whole entry): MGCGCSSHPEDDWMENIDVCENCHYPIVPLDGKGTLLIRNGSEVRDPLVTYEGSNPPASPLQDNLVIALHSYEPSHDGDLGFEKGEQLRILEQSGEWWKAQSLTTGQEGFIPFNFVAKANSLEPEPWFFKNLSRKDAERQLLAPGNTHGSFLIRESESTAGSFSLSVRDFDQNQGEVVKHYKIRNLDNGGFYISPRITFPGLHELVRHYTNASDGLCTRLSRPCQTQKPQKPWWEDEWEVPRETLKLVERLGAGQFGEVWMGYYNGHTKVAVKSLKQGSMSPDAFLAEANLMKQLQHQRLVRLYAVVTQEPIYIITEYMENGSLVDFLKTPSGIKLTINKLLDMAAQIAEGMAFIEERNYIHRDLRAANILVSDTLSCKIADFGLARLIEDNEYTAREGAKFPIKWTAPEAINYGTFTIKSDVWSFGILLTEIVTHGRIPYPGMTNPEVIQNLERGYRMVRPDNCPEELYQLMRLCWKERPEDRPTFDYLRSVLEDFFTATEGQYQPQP

FynT enzyme = FynT enzyme (Homo sapiens (Human), UniProt P06241); assay: FynT enzyme activity (IMAP fluorescence polarization assay); format: biochemical; details: 60 min pre-incubation, 0.2 μM ATP
Chain of FynT enzyme (P06241 other isoform, or with tags, fused parts or gaps): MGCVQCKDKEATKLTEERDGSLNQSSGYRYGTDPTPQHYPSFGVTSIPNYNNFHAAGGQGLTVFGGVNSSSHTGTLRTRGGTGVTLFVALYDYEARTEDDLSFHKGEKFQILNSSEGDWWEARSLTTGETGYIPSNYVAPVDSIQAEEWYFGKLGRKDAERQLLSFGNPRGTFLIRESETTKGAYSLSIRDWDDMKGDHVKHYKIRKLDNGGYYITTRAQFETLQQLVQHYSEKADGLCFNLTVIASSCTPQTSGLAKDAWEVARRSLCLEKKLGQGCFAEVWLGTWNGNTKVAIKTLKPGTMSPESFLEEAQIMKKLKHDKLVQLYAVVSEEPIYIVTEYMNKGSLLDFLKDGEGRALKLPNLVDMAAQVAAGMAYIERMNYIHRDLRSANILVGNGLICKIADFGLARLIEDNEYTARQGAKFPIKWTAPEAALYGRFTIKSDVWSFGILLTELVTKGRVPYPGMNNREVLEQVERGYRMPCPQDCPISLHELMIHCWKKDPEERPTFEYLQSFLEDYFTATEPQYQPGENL
How it was run: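 Human FynT pre-incubated with compounds 60 min at room temperature, then reacted 2 h at room temperature with fluorescein-labelled p34cdc2 peptide (100 nM final). Stopped with IMAP binding solution; fluorescence polarization read after 60 min. Activity as % of ±ATP control difference; EC50 by curve fitting.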

Lyn enzyme = Lyn enzyme (Homo sapiens (Human), UniProt P07948); assay: Lyn enzyme activity (IMAP fluorescence polarization assay)
Chain of Lyn enzyme (P07948 whole entry): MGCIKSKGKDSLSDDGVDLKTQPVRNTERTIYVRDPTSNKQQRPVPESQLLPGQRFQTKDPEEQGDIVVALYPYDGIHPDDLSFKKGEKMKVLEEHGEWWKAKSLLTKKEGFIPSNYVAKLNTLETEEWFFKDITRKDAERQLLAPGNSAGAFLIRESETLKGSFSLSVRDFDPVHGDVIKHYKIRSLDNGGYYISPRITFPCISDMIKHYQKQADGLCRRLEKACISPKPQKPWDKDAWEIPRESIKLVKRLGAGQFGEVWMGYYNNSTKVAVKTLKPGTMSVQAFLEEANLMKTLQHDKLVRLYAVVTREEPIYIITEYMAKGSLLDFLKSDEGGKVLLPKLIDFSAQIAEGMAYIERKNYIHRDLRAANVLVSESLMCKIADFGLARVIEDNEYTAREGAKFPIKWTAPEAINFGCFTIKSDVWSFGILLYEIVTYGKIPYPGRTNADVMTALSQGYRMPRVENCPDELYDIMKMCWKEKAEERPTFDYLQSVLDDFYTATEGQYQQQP

[1] = IMAP, 60 min pre-incubation, 5 μM ATP, bin bound in nM
[2] = read-out: EC50 Lck activity values, IMAP, 60 min pre-incubation, 6 μM ATP, bin bound in μM
[3] = read-out: EC50 Lyn activity values, 60 min pre-incubation, 2 μM ATP, bin bound in μM
[4] = IMAP, 60 min pre-incubation, 6 μM ATP, bin bound in μM
[5] = read-out: EC50 Btk activity values, IMAP, 60 min pre-incubation, 5 μM ATP, bin bound in nM
[6] = IMAP, 60 min pre-incubation, 5 μM ATP, bin bound in μM

Row | EC50 (Src enzyme) | EC50 (Btk enzyme (His-Btk)) | EC50 Btk activity values (Btk enzyme (His-Btk); [1]) | EC50 (Lck enzyme; [2]) | EC50 (FynT enzyme) | EC50 (Lyn enzyme; [3]) | EC50 (Lck enzyme) | EC50 Lck activity values (Lck enzyme; [4]) | EC50 (Lyn enzyme; EC50 Lyn activity values, 60 min pre-incubation, 2 μM ATP, bin bound in nM) | EC50 (Lyn enzyme; EC50 Lyn activity values, 60 min pre-incubation, 2 μM ATP, bin bound in μM) | EC50 (Btk enzyme (His-Btk); [5]) | EC50 Btk activity values (Btk enzyme (His-Btk); [6]) | Structure (SMILES)
1 | ≥ 1 µM | 10 to 100 nM | <100 nM | ≥ 1 µM | ≥ 1 µM | ≥ 1 µM | – | – | – | – | – | – | COC/C=C/C(=O)N1CCC[C@H]1c1nc(-c2ccc(C(=O)Nc3cc(C(C)C)ccn3)cc2)c2c(N)nccn12 [Example 58, (S,E)-4-(8-amino-3-(1-(4-methoxybut-2-enoyl)pyrrolidin-2-yl)imidazo[1,5-a]pyrazin-1-yl)-N-(4-isopropylpyridin-2-yl)benzamide]
2 | ≥ 1 µM | 10 to 100 nM | <100 nM | ≥ 1 µM | ≥ 1 µM | ≥ 1 µM | – | – | – | – | – | – | Cc1ccnc(NC(=O)c2ccc(-c3nc([C@@H]4CCCN4C(=O)/C=C/CN(C)C)n4ccnc(N)c34)cc2)c1 [Example 59, (S,E)-4-(8-amino-3-(1-(4-(dimethylamino)but-2-enoyl)pyrrolidin-2-yl)imidazo[1,5-a]pyrazin-1-yl)-N-(4-methylpyridin-2-yl)benzamide]
3 | ≥ 1 µM | 10 to 100 nM | <100 nM | – | ≥ 1 µM | – | 0.1 to 1 µM | <1 µM | ≥ 0.1 µM | < 1 µM and ≥ 1 µM | – | – | CC#CC(=O)N1CCC[C@H]1c1nc(-c2ccc(C(=O)Nc3nccs3)cc2)c2c(N)nccn12 [Example 60, (S)-4-(8-amino-3-(1-but-2-ynoylpyrrolidin-2-yl)imidazo[1,5-a]pyrazin-1-yl)-N-(thiazol-2-yl)benzamide]
4 | ≥ 1 µM | – | – | ≥ 1 µM | ≥ 1 µM | ≥ 1 µM | – | – | – | – | < 10 nM | – | C=CC(=O)N1CCCC[C@H]1c1nc(-c2ccc(C(=O)Nc3cc(CCC)ccn3)cc2)c2c(N)nccn12 [Example 61, (S)-4-(3-(1-acryloylpiperidin-2-yl)-8-aminoimidazo[1,5-a]pyrazin-1-yl)-N-(4-propylpyridin-2-yl)benzamide]
5 | ≥ 1 µM | – | – | – | ≥ 1 µM | ≥ 1 µM | 0.1 to 1 µM | <1 µM | – | – | < 10 nM | – | C=CC(=O)N1CCC[C@H]1c1nc(-c2ccc(C(=O)Nc3cc(C(F)(F)F)ccn3)cc2)c2c(N)nccn12 [Example 62, (S)-4-(3-(1-acryloylpyrrolidin-2-yl)-8-aminoimidazo[1,5-a]pyrazin-1-yl)-N-(4-(trifluoromethyl)pyridin-2-yl)benzamide]
6 | ≥ 1 µM | – | – | ≥ 1 µM | ≥ 1 µM | ≥ 1 µM | – | – | – | – | < 10 nM | – | CC#CC(=O)N1CCCC[C@H]1c1nc(-c2ccc(C(=O)Nc3cc(C(F)(F)F)ccn3)cc2)c2c(N)nccn12 [Example 63, (S)-4-(8-amino-3-(1-but-2-ynoylpiperidin-2-yl)imidazo[1,5-a]pyrazin-1-yl)-N-(4-(trifluoromethyl)pyridin-2-yl)benzamide]
7 | ≥ 1 µM | – | – | – | ≥ 1 µM | ≥ 1 µM | 0.1 to 1 µM | <1 µM | – | – | < 10 nM | – | CC#CC(=O)N1CCCC[C@H]1c1nc(-c2ccc(C(=O)Nc3cc(CCC)ccn3)cc2)c2c(N)nccn12 [Example 64, (S)-4-(8-amino-3-(1-but-2-ynoylpiperidin-2-yl)imidazo[1,5-a]pyrazin-1-yl)-N-(4-propylpyridin-2-yl)benzamide]
8 | ≥ 1 µM | – | – | ≥ 1 µM | ≥ 1 µM | ≥ 1 µM | – | – | – | – | < 10 nM | – | CC(C)c1ccnc(NC(=O)c2ccc(-c3nc([C@@H]4CCCN4C(=O)/C=C/CN(C)C)n4ccnc(N)c34)cc2)c1 [Example 65, (S,E)-4-(8-amino-3-(1-(4-(dimethylamino)but-2-enoyl)pyrrolidin-2-yl)imidazo[1,5-a]pyrazin-1-yl)-N-(4-isopropylpyridin-2-yl)benzamide]
9 | ≥ 1 µM | – | – | ≥ 1 µM | ≥ 1 µM | ≥ 1 µM | – | – | – | – | < 10 nM | – | C=CS(=O)(=O)N1CCCC[C@H]1c1nc(-c2ccc(C(=O)Nc3ccccn3)cc2C)c2c(N)nccn12 [Example 66, 4-(8-amino-3-((S)-1-(vinylsulfonyl)piperidin-2-yl)imidazo[1,5-a]pyrazin-1-yl)-3-methyl-N-(pyridin-2-yl)benzamide]
10 | ≥ 1 µM | – | – | ≥ 1 µM | ≥ 1 µM | ≥ 1 µM | – | – | – | – | < 10 nM | – | CC#CC(=O)N1CCCC[C@H]1c1nc(-c2ccc(C(=O)Nc3cc(CCC)ccn3)c(F)c2)c2c(N)nccn12 [Example 67, (S)-4-(8-amino-3-(1-but-2-ynoylpiperidin-2-yl)imidazo[1,5-a]pyrazin-1-yl)-2-fluoro-N-(4-propylpyridin-2-yl)benzamide]
11 | ≥ 1 µM | 100 to 1000 nM | – | ≥ 1 µM | ≥ 1 µM | ≥ 1 µM | – | – | – | – | – | <1000 nM | C=CC(=O)N1CCCC[C@H]1c1nc(-c2ccc(C(=O)Nc3ccccn3)cc2C)c2c(N)nccn12 [Example 68, 4-(3-((S)-1-acryloylpiperidin-2-yl)-8-aminoimidazo[1,5-a]pyrazin-1-yl)-3-methyl-N-(pyridin-2-yl)benzamide]
12 | ≥ 1 µM | 10 to 100 nM | <100 nM | ≥ 1 µM | ≥ 1 µM | ≥ 1 µM | – | – | – | – | – | – | CN(C)C/C=C/C(=O)NCc1nc(-c2ccc(C(=O)Nc3ccccn3)cc2)c2c(N)nccn12 [Example 69, (E)-4-(8-amino-3-((4-(dimethylamino)but-2-enamido)methyl)imidazo[1,5-a]pyrazin-1-yl)-N-(pyridin-2-yl)benzamide]
13 | ≥ 1 µM | 10 to 100 nM | <100 nM | ≥ 1 µM | ≥ 1 µM | ≥ 1 µM | – | – | – | – | – | – | CC(C)c1ccnc(NC(=O)c2ccc(-c3nc([C@@H]4CCCN4C(=O)c4ccnc(Cl)n4)n4ccnc(N)c34)cc2)c1 [Example 70, (S)-4-(8-amino-3-(1-(2-chloropyrimidine-4-carbonyl)pyrrolidin-2-yl)imidazo[1,5-a]pyrazin-1-yl)-N-(4-isopropylpyridin-2-yl)benzamide]
14 | ≥ 1 µM | 10 to 100 nM | <100 nM | ≥ 1 µM | ≥ 1 µM | ≥ 1 µM | – | – | – | – | – | – | Nc1nccn2c([C@@H]3CCCN3C(=O)c3ccnc(Cl)n3)nc(-c3ccc(C(=O)Nc4nc5c(s4)CCCC5)cc3)c12 [Example 71, (S)-4-(8-amino-3-(1-(2-chloropyrimidine-4-carbonyl)pyrrolidin-2-yl)imidazo[1,5-a]pyrazin-1-yl)-N-(4,5,6,7-tetrahydrobenzo[d]thiazol-2-yl)benzamide]
15 | ≥ 1 µM | 100 to 1000 nM | – | ≥ 1 µM | ≥ 1 µM | ≥ 1 µM | – | – | – | – | – | <1000 nM | COC/C=C/C(=O)N1CCCC[C@H]1c1nc(-c2ccc(C(=O)Nc3cccnn3)cc2)c2c(N)nccn12 [Example 72, (S,E)-4-(8-amino-3-(1-(4-methoxybut-2-enoyl)piperidin-2-yl)imidazo[1,5-a]pyrazin-1-yl)-N-(pyridazin-3-yl)benzamide]
16 | ≥ 1 µM | 10 to 100 nM | <100 nM | ≥ 1 µM | ≥ 1 µM | ≥ 1 µM | – | – | – | – | – | – | CN(C)C/C=C/C(=O)N1CCCC[C@H]1c1nc(-c2ccc(C(=O)Nc3cccnn3)cc2)c2c(N)nccn12 [Example 73, (S,E)-4-(8-amino-3-(1-(4-(dimethylamino)but-2-enoyl)piperidin-2-yl)imidazo[1,5-a]pyrazin-1-yl)-N-(pyridazin-3-yl)benzamide]
17 | ≥ 1 µM | 100 to 1000 nM | – | ≥ 1 µM | ≥ 1 µM | ≥ 1 µM | – | – | – | – | – | <1000 nM | Nc1nccn2c([C@@H]3CCCCN3C(=O)c3ccnc(Cl)n3)nc(-c3ccc(C(=O)Nc4cccnn4)cc3)c12 [Example 74, (S)-4-(8-amino-3-(1-(2-chloropyrimidine-4-carbonyl)piperidin-2-yl)imidazo[1,5-a]pyrazin-1-yl)-N-(pyridazin-3-yl)benzamide]
18 | ≥ 1 µM | – | – | ≥ 1 µM | ≥ 1 µM | ≥ 1 µM | – | – | – | – | < 10 nM | – | COC/C=C/C(=O)N(C)[C@@H](C)c1nc(-c2ccc(C(=O)Nc3cc(C(F)(F)F)ccn3)cc2)c2c(N)nccn12 [Example 75, (S,E)-4-(8-amino-3-(1-(4-methoxy-N-methylbut-2-enamido)ethyl)imidazo[1,5-a]pyrazin-1-yl)-N-(4-(trifluoromethyl)pyridin-2-yl)benzamide]
19 | ≥ 1 µM | – | – | – | ≥ 1 µM | ≥ 1 µM | 0.1 to 1 µM | <1 µM | – | – | < 10 nM | – | CCCc1ccnc(NC(=O)c2ccc(-c3nc([C@H](C)N(C)C(=O)/C=C/CN(C)C)n4ccnc(N)c34)cc2)c1 [Example 76, (S,E)-4-(8-amino-3-(1-(4-(dimethylamino)-N-methylbut-2-enamido)ethyl)imidazo[1,5-a]pyrazin-1-yl)-N-(4-propylpyridin-2-yl)benzamide]
